# Measured values published in patent US20230184743A1, “SCREENING METHODS TO IDENTIFY SMALL MOLECULE COMPOUNDS THAT PROMOTE OR INHIBIT THE GROWTH OF CIRCULATING TUMOR CELLS, AND USES THEREOF” (University of Southern California, priority 2020, published 2023).
# “Also recorded” adds a separate entry of the source.
# Key:
# [1] = tested on: single CTCs from 4 patient-derived CTC lines (BRx07, BRx42, BRx50, and BRx68); assay: Validation of candidate compounds: single CTC proliferation over 24 days (AUC); assay type: cell-based, human
# Description: (§1) Cell culture. CTC lines were previously derived from metastatic breast cancer patients. CTC lines were cultured in ultra-low attachment plates with RPMI 1640 medium, supplemented with EGF (20 ng/mL), bFGF (20 ng/mL), 1×B27 and 1× antibiotic/antimycotic, in 4% 02 and 5% CO2. Single CTCs were cultured in GravityTRAP™ ULA 96 well Plates (PerkinElmer). Wells on the edges of the plates were not used to avoid influence from evaporation. Media with fresh compounds were exchanged every 3 days by inserting pipet tips onto the platform of the wells to prevent accidentally aspirating suspended CTCs at the bottom. CTC numbers were counted manually under an inverted microscope every 6 days.
# FACS sorting. Cells were pelleted and resuspended into single cell suspension in 1% BSA in PBS buffer with 7-AAD. Live single CTCs were sorted directly into 96-well GravityTRAP™ ULA Plates using a MoFlo cell sorter (Beckman Coulter). An inverted microscope was used to manually confirm that there was 1 CTC per well, 1 hour after sorting.
# Compounds screening. Compounds were from the StemSelect library obtained from the Choi Family Therapeutic Screening Facility at the Eli and Edythe Broad CIRM Center for Regenerative Medicine and Stem Cell Research at USC. Each compound was given a code to ensure unbiased assessment and blinded to the investigators. Compound information is listed in Appendix, at Table 1 of US Provisional Application No. U.S. 62/990,445, incorporated herein by reference). In the first-round screening, compounds were used with […] concentration. Stocks of compounds (10 mM concentration in DMSO) were stored in aliquots at −80° C. All compounds were thawed and refrozen for a maximum of 2 times. In the second-round validation, fresh compounds were dissolved in DMSO (Millipore sigma), and aliquots were stored at −20° C. and used only once without refreezing. Only wells started from single cells on day 0 after sorting were used in the screening experiment. Data collection was done in batches.
# (§2) Statistical analysis. […] AUC was calculated for each well in each batch, by plotting days in the x-axis and the corresponding number of cells in the y-axis, then drawing a line to connect the number of cells from the starting count day to the next count day until the end day, and finally calculating the area under this line as the sum of areas of trapezoids. […] Statistical tests were performed using R. For absolute number of cells quantification, total number of cells at end of experiment in each well in each batch was compared between treated cells and untreated control and significance was analyzed with Student t test. For other experiments, data were analyzed with Student t test, and represent the means±SEM of at least triplicate samples or averages ±SD of independent analyses, as indicated. […]
# [2] = tested on: GFP-Luciferase tagged BRx68 single clones; assay: Xenograft assay of single cell clones generated with or without NAC; assay type: in vivo; conditions: clones generated with 300 μM NAC for 24 days vs control clones; mammary fat pad of female NSG mice
# Description: Single CTC clones. NAC clones were generated by treating single CTCs with 300 μM NAC media for 24 days before switching to regular CTC media. Control single clone lines were established in the same batch using regular CTC media.
# Xenograft assay and Hematoxyline & Eosin staining. Six-week old female NSG mice (Jackson Laboratory) were anesthetized with isoflurane and 20,000 GFP/luc-positive single clone cells in 100 μL of 1:1 PBS and Corning® Matrigel® Matrix (phenol-red free) were injected into the fourth mammary fat pad. To evaluate the growth of primary tumors, mice were intraperitoneally injected with 150 μL of d-Luciferin substrate at 30 mg/mL (Sid Labs), and imaged within 15 minutes. Signals from luciferase-tagged cells were monitored at day 0 after injection and weekly by in vivo imaging using IVIS Lumina II (Perkin Elmer) for 5 weeks. Mice were sacrificed after 8 weeks, and their organs were dissected and imaged. Primary tumors and organs were collected and fixed with 10% formalin overnight and sectioned for 5 μm thickness. H&E staining was performed using Varistain Gemini ES Automated Slide Stainer in USC's Histology Laboratory (HIST). Images were taken with a 20× objective in Keyence (BZ-II Analyser, Keyence).
# Validation on spiked-in CTCs. To mimic the CTC isolation procedure, spiked-in experiments were performed with 3 CTC lines (BRx42, BRx50 and BRx68) into healthy donors' blood. […]
# single BRx68 cells = assay: Single CTC proliferation over 24 days (AUC), BRx68 line; assay type: cell-based, human; conditions: two batches, 200 μM-300 μM NAC, 24 days
# Description: as §1
# FACS sorting. […]
# as §2, with “test.” for “test. For other experiments, data were analyzed with Student t test, and represent the means±SEM of at least triplicate samples or averages ±SD of independent analyses, as indicated.”
structure (smiles),measurement,setting,value
"CC(=O)N[C@@H](CS)C(=O)O [NAC, N-acetyl-L-cysteine]",additional growth advantages from treatment once a single cell colony reaches a critical size,[1]; after initial expansion from single CTCs,does not seem to confer additional growth advantages
same,single CTC expansion compared to controls,"[1]; all 4 CTC lines, NAC 300 μM, P1C2 1 μM or 0.5 μM, 24 days",promote growth of single CTCs; also recorded: statistically significant improvement
same,tumorigenicity of single cell clones (tumor growth kinetics and histology),[2],dose not change the tumorigenicity; also recorded: did not significantly affect
same,single CTC proliferation at various NAC concentrations,single BRx68 cells,most significant effect in promoting single CTC proliferation
